Experimental data as given in patent US20260132132A1, “3A,4,5,6-TETRAHYDRO-1 H-PYRAZOLO[3,4-C]PYRIDIN-7(7AH)-ONE DERIVATIVES AS FACTOR XIIA INHIBITORS” (KALVISTA PHARMACEUTICALS LIMITED, priority 2022, published 2026).

Tests used:
FXa = FXa (Homo sapiens, UniProt P00742); assay: Related protease inhibition: FXa, fluorogenic substrate; format: biochemical; conditions: fluorogenic substrate at Km, 25° C.; H1-H3 = % activity at 40 μM
Protocol: Human serine protease enzyme Plasma Kallikrein, KLK1, FXa, Plasmin, Thrombin and Trypsin were assayed for enzymatic activity using an appropriate fluorogenic substrate at Km concentration, FXIa at fixed substrate concentration of 100 μM and various concentrations of the test compound.

[1] = target: T1, Human Factor XIIa (hFXIIa) (Homo sapiens, UniProt P00748); assay: Determination of Human Factor XIIa (hFXIIa) inhibition, fluorogenic substrate IC50 assay; format: biochemical; conditions: fluorogenic substrate H-DPro-Phe-Arg-AFC at Km, 25° C., read-out: Human FXIIa IC50
T1 construct: purchased Enzyme Research Laboratories
T1 sequence (P00748 373-615 limits assumed): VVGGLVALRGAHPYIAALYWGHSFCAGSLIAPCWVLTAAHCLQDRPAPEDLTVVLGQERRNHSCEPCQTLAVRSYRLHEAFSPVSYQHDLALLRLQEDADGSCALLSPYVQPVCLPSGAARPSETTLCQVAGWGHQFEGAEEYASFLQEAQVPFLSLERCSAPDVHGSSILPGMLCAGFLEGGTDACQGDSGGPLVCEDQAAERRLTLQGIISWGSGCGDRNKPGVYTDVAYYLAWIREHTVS
T1 sequence (P00748 20-372 partner limits assumed): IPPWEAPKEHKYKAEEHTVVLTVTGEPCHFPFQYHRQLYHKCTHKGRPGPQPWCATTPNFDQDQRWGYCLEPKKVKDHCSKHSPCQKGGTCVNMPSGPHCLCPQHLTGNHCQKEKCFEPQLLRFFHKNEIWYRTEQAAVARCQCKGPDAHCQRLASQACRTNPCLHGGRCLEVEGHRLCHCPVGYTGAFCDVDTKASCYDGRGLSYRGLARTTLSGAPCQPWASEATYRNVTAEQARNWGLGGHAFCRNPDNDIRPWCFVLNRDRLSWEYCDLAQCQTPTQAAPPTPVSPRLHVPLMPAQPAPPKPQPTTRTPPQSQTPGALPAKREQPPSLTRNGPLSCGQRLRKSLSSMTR
Protocol: Determination of Human Factor XIIa (hFXIIa) inhibition
The Km for the cleavage of the substrate by hFXIIa was determined by standard transformation of the Michaelis-Menten equation, with subsequent inhibition assays performed at substrate Km concentration.

Chain of FXa (P00742 235-488 limits assumed): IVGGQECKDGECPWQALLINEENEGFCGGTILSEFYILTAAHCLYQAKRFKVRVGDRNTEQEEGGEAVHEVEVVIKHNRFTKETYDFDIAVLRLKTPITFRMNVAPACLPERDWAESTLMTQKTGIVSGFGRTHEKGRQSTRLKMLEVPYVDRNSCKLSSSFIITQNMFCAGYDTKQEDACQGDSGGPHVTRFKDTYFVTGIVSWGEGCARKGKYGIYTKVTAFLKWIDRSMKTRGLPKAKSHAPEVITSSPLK
Chain of FXa (P00742 41-179 partner limits assumed): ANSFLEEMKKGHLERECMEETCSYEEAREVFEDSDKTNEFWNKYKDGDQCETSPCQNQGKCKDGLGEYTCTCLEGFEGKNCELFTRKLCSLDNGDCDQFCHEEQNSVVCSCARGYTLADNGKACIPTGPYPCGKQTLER

Row | SMILES | IC50 (FXa) [µM] | IC50 [1] [µM]
1 | CN1CCc2ccc(N3CCc4c(C(=O)N[C@H]5CCOC5)nn(-c5cccc(Cl)c5)c4C3=O)cc2C1=O [Example 1336, (S)-1-(3-chlorophenyl)-6-(2-methyl-1-oxo-1,2,3,4-tetrahydroisoquinolin-7-yl)-7-oxo-N-(tetrahydrofuran-3-yl)-4,5,6,7-tetrahydro-1H-pyrazolo[3,4-c]pyridine-3-carboxamide] | > 40 | 0.3 to 1
2 | C[C@H](CO)NC(=O)c1nn(-c2cccc(Cl)c2)c2c1CCN(c1ccc3c(c1)C(=O)N(C)CC3)C2=O [Example 1337, (R)-1-(3-chlorophenyl)-N-(1-hydroxypropan-2-yl)-6-(2-methyl-1-oxo-1,2,3,4-tetrahydroisoquinolin-7-yl)-7-oxo-4,5,6,7-tetrahydro-1H-pyrazolo[3,4-c]pyridine-3-carboxamide] | > 40 | 0.3 to 1
3 | CN1CCc2ccc(N3CCc4c(C(=O)N[C@@H]5CCOC5)nn(-c5cccc(Cl)c5)c4C3=O)cc2C1=O [Example 1338, (R)-1-(3-chlorophenyl)-6-(2-methyl-1-oxo-1,2,3,4-tetrahydroisoquinolin-7-yl)-7-oxo-N-(tetrahydrofuran-3-yl)-4,5,6,7-tetrahydro-1H-pyrazolo[3,4-c]pyridine-3-carboxamide] | > 40 | 0.3 to 1
4 | CN1CCc2ccc(N3CCc4c(C(=O)NCC5COC5)nn(-c5cccc(Cl)c5)c4C3=O)cc2C1=O [Example 1339, 1-(3-chlorophenyl)-6-(2-methyl-1-oxo-1,2,3,4-tetrahydroisoquinolin-7-yl)-N-(oxetan-3-ylmethyl)-7-oxo-4,5,6,7-tetrahydro-1H-pyrazolo[3,4-c]pyridine-3-carboxamide] | > 40 | 0.3 to 1
5 | CN1CCc2ccc(N3CCc4c(C(=O)NCCO)nn(-c5cccc(Cl)c5)c4C3=O)cc2C1=O [Example 1340, 1-(3-chlorophenyl)-N-(2-hydroxyethyl)-6-(2-methyl-1-oxo-1,2,3,4-tetrahydroisoquinolin-7-yl)-7-oxo-4,5,6,7-tetrahydro-1H-pyrazolo[3,4-c]pyridine-3-carboxamide] | > 40 | 0.3 to 1
6 | CN1CCc2ccc(N3CCc4c(C(=O)NCC(=O)O)nn(-c5cccc(Cl)c5)c4C3=O)cc2C1=O [Example 1341, (1-(3-chlorophenyl)-6-(2-methyl-1-oxo-1,2,3,4-tetrahydroisoquinolin-7-yl)-7-oxo-4,5,6,7-tetrahydro-1H-pyrazolo[3,4-c]pyridine-3-carbonyl)glycine] | 10 to 40 | 0.3 to 1
7 | CN1CCc2ccc(N3CCc4c(C(=O)NC5COC5)nn(-c5cccc(Cl)c5)c4C3=O)cc2C1=O [Example 1342, 1-(3-chlorophenyl)-6-(2-methyl-1-oxo-1,2,3,4-tetrahydroisoquinolin-7-yl)-N-(oxetan-3-yl)-7-oxo-4,5,6,7-tetrahydro-1H-pyrazolo[3,4-c]pyridine-3-carboxamide] | > 40 | 0.3 to 1
8 | CN1CCc2ccc(N3CCc4c(C(=O)N5CCCO5)nn(-c5cccc(Cl)c5)c4C3=O)cc2C1=O [Example 1343, 7-(1-(3-chlorophenyl)-3-(isoxazolidine-2-carbonyl)-7-oxo-1,4,5,7-tetrahydro-6H-pyrazolo[3,4-c]pyridin-6-yl)-2-methyl-3,4-dihydroisoquinolin-1(2H)-one] | 10 to 40 | 1 to 3
9 | C[C@@H](CO)NC(=O)c1nn(-c2cccc(Cl)c2)c2c1CCN(c1ccc3c(c1)C(=O)N(C)CC3)C2=O [Example 1344, (S)-1-(3-chlorophenyl)-N-(1-hydroxypropan-2-yl)-6-(2-methyl-1-oxo-1,2,3,4-tetrahydroisoquinolin-7-yl)-7-oxo-4,5,6,7-tetrahydro-1H-pyrazolo[3,4-c]pyridine-3-carboxamide] | 10 to 40 | 0.3 to 1
10 | CN1CCc2ccc(N3CCc4c(C(=O)NS(C)(=O)=O)nn(-c5cccc(Cl)c5)c4C3=O)cc2C1=O [Example 1345, 1-(3-chlorophenyl)-6-(2-methyl-1-oxo-1,2,3,4-tetrahydroisoquinolin-7-yl)-N-(methylsulfonyl)-7-oxo-4,5,6,7-tetrahydro-1H-pyrazolo[3,4-c]pyridine-3-carboxamide] | > 40 | 3 to 10
11 | CN1CCc2ccc(N3CCc4c(C(=O)NC5CCC5)nn(-c5cccc(Cl)c5)c4C3=O)cc2C1=O [Example 1346, 1-(3-chlorophenyl)-N-cyclobutyl-6-(2-methyl-1-oxo-1,2,3,4-tetrahydroisoquinolin-7-yl)-7-oxo-4,5,6,7-tetrahydro-1H-pyrazolo[3,4-c]pyridine-3-carboxamide] | > 40 | 0.3 to 1
12 | CN1CCc2ccc(N3CCc4c(C(=O)NO)nn(-c5cccc(Cl)c5)c4C3=O)cc2C1=O [Example 1347, 1-(3-chlorophenyl)-N-hydroxy-6-(2-methyl-1-oxo-1,2,3,4-tetrahydroisoquinolin-7-yl)-7-oxo-4,5,6,7-tetrahydro-1H-pyrazolo[3,4-c]pyridine-3-carboxamide] | 3 to 10 | 0.3 to 1
13 | CCOC(=O)c1nn(-c2cccc(Cl)c2)c2c1CCN(c1cccc(-n3ccccc3=O)c1)C2=O [Example 1350, ethyl 1-(3-chlorophenyl)-7-oxo-6-(3-(2-oxopyridin-1(2H)-yl)phenyl)-4,5,6,7-tetrahydro-1H-pyrazolo[3,4-c]pyridine-3-carboxylate] | 3 to 10 | 3 to 10
14 | Cc1cc(CNC(=O)c2nn(-c3cccc(Cl)c3)c3c2CCN(c2ccc4c(c2)C(=O)N(C)[C@H](CO)CO4)C3=O)nn1C [Example 1351, (R)-1-(3-chlorophenyl)-N-((1,5-dimethyl-1H-pyrazol-3-yl)methyl)-6-(3-(hydroxymethyl)-4-methyl-5-oxo-2,3,4,5-tetrahydrobenzo[f][1,4]oxazepin-7-yl)-7-oxo-4,5,6,7-tetrahydro-1H-pyrazolo[3,4-c]pyridine-3-carboxamide] | > 40 | 3 to 10
15 | CCN1CCOc2ccc(N3CCc4c(C(=O)NCc5cc(C)[nH]n5)nn(-c5cccc(Cl)c5)c4C3=O)cc2C1=O [Example 1352, 1-(3-chlorophenyl)-6-(4-ethyl-5-oxo-2,3,4,5-tetrahydrobenzo[f][1,4]oxazepin-7-yl)-N-((5-methyl-1H-pyrazol-3-yl)methyl)-7-oxo-4,5,6,7-tetrahydro-1H-pyrazolo[3,4-c]pyridine-3-carboxamide] | 3 to 10 | 0.01 to 0.1
16 | CN1CCc2ccc(N3CCc4c(C5=NCCO5)nn(-c5cccc(Cl)c5)c4C3=O)cc2C1=O [Example 1353, 7-(1-(3-Chlorophenyl)-3-(4,5-dihydrooxazol-2-yl)-7-oxo-1,4,5,7-tetrahydro-6H-pyrazolo[3,4-c]pyridin-6-yl)-2-methyl-3,4-dihydroisoquinolin-1 (2H)-one] | 3 to 10 | 0.3 to 1
17 | CN1CCc2ccc(N3CCc4c(COC5(C)COC5)nn(-c5cccc(Cl)c5)c4C3=O)cc2C1=O [Example 1354, 7-(1-(3-chlorophenyl)-3-(((3-methyloxetan-3-yl)oxy)methyl)-7-oxo-1,4,5,7-tetrahydro-6H-pyrazolo[3,4-c]pyridin-6-yl)-2-methyl-3,4-dihydroisoquinolin-1 (2H)-one] | 10 to 40 | 1 to 3
18 | O=C(NCc1ccn(C2CC2)n1)c1nn(-c2cccc(Cl)c2)c2c1CCN(c1ccc3c(c1)C(=O)N(CCO)CC3)C2=O [Example 1355, 1-(3-chlorophenyl)-N-((1-cyclopropyl-1H-pyrazol-3-yl)methyl)-6-(2-(2-hydroxyethyl)-1-oxo-1,2,3,4-tetrahydroisoquinolin-7-yl)-7-oxo-4,5,6,7-tetrahydro-1H-pyrazolo[3,4-c]pyridine-3-carboxamide] | > 40 | 0.1 to 0.3
19 | Cc1ccncc1COCc1nn(-c2cccc(Cl)c2)c2c1CCN(c1ccc3c(c1)C(=O)N(C)CC3)C2=O [Example 1356, 7-(1-(3-chlorophenyl)-3-(((4-methylpyridin-3-yl)methoxy)methyl)-7-oxo-1,4,5,7-tetrahydro-6H-pyrazolo[3,4-c]pyridin-6-yl)-2-methyl-3,4-dihydroisoquinolin-1(2H)-one] | 3 to 10 | 1 to 3
20 | Cc1cnccc1CNC(=O)c1nn(-c2cccc(Cl)c2)c2c1CCN(c1ccc3c(c1)C(=O)N(CCO)CC3)C2=O [Example 1357, 1-(3-chlorophenyl)-6-(2-(2-hydroxyethyl)-1-oxo-1,2,3,4-tetrahydroisoquinolin-7-yl)-N-((3-methylpyridin-4-yl)methyl)-7-oxo-4,5,6,7-tetrahydro-1H-pyrazolo[3,4-c]pyridine-3-carboxamide] | > 40 | 0.3 to 1
21 | CN1CCc2ccc(N3CCc4c(COCC(=O)O)nn(-c5cccc(Cl)c5)c4C3=O)cc2C1=O [Example 1358, 2-((1-(3-chlorophenyl)-6-(2-methyl-1-oxo-1,2,3,4-tetrahydroisoquinolin-7-yl)-7-oxo-4,5,6,7-tetrahydro-1H-pyrazolo[3,4-c]pyridin-3-yl)methoxy)acetic acid] | 3 to 10 | 1 to 3
